# Results taken from article PMC6367362, “MD001, a Novel Peroxisome Proliferator-activated Receptor α/γ Agonist, Improves Glucose and Lipid Metabolism” (Scientific Reports, 2019).
# Molecular target: T1, PPARα (Homo sapiens, UniProt Q07869)
# T1 construct: HA; made in house
# T1 sequence (Q07869 1-468): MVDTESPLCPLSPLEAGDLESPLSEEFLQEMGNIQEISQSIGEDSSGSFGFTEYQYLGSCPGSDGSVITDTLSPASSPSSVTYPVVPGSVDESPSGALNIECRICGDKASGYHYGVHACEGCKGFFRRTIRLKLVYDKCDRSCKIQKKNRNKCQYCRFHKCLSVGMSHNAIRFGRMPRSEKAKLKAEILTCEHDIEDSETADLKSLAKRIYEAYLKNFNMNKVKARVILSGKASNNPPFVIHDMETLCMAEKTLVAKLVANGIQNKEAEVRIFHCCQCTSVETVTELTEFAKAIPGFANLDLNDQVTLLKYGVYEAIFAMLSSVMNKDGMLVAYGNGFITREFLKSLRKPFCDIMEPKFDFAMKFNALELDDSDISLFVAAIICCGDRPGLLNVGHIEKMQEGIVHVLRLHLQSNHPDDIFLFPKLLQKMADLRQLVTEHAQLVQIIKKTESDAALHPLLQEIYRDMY
# Assay: SPR analysis of binding to immobilised HA-PPARα
# Conditions: MD001 31.25-500 μM
# Method: SPR analysis was performed using a Reichert SR7500DC (Reichert Technologies, Depew, NY, USA). HA-PPARα, HA-PPARβ/δ, and HA-PPARγ were purified as previously described[23] and was immobilised on CMDH chips (Reichert Technologies) according to the manufacturer’s instructions. MD001 was loaded in a dose-dependent manner (31.25, 62.5, 125, 250, and 500 μM) for the SPR assay. The dissociation constant (KD) value was determined using the Scrubber2 program (Informer Technologies, Inc., Los Angeles, CA, USA).
smiles,measurement,value
Cc1c(O)cc(O)c2c(-c3ccccc3)c(C(=O)/C=C/c3ccccc3)c(=O)oc12 [MD001],Kd,9.55 ± 0.8 µM
